In patent US7282512B2, “Cycloalkyl ketoamides derivatives useful as cathepsin K inhibitors” (SmithKline Beecham Corporation, priority 2002, dated 2007):
Values belong to the compound of their own block, whether it stands above or below them.

What was measured:
human cathepsin K = biological target: T1, human cathepsin K (Homo sapiens, UniProt P43235); test: cathepsin K inhibition assay, fluorogenic substrate Cbz-Phe-Arg-AMC, progress curve method; type: biochemical; settings: Table 1; human recombinant enzyme, pH 5.5, 30° C., 10 μM substrate; read-out: hcatK Ki
T1 construct: The proform of cathepsin K was converted to mature cathepsin K by brief exposure to pH 4; made in house; host or cells: baculovirus; Trichoplusia ni High Five cells (virus raised in Sf-9)
T1 sequence (P43235 115-329): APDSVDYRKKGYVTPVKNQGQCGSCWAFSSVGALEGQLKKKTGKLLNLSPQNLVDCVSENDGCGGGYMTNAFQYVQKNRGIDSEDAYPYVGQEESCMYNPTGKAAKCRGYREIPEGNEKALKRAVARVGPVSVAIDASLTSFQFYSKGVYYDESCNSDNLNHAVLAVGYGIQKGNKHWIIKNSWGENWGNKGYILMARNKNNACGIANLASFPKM
Protocol: All assays for cathepsin K were carried out with human and rat recombinant enzyme. Assays for cathepsins S & V were also carried out with human recombinant enzyme. Assays for human cathepsins B, H, and L were carried out with enzyme, purchased from Athens Research and Technology, Inc., prepared from human liver tissue. […] A stock substrate solution of Cbz-Phe-Arg-AMC was prepared at a concentration of 50 mM in dimethyl sulfoxide. This substrate was diluted into the assay for a final substrate concentration of 10 μM in the rat cathepsin K, human cathepsin K, and human cathepsin B assays; a final substrate concentration of 5 μM in the human cathepsin L assay; and a final substrate concentration of 2 μM in the human cathepsin V assay.
All assays contained 10% dimethyl sulfoxide. […] All assays were conducted at 30° C. Product fluorescence (excitation at 360 nm; emission at 440 nm, (except cathepsin H which used excitation at 340 nm; emission at 420 nm)) was monitored with a PerSeptive Biosystems Cytofluor II fluorescence plate reader. Product progress curves were generated over 2.3 h monitoring the formation of 7-amino-4-methylcoumarin product (or β-naphthalamide for cathepsin H).
Two liters of Spodoptera frugiperda (Sf-9) cells (ATCC) were grown in Grace's Supplemented medium (Life Technologies) supplemented with 2 g/L glucose, 10% fetal bovine serum (HyClone) and 0.1% pluronic F-68 (Life Technologies). […] The cells continued to grow for 72 h post-infection, before the virus was harvested by centrifugation at 1400×g for 30 min.
One and one-half liters of Trichoplusia ni (T. ni) High Five (™) cells [JRH Biosciences, Woodland, Calif. […] Media were separated from cells at a rate of 1 L/min using the Centritech 100 (™) continuous-flow centrifuge (DuPont) operating at 200×g.
Protein Purification: Media (human and rat) were filtered through a Whatman 3 filter, and then loaded onto a 25 mL Poros HS II (26 mm×47 mm) cation exchange column equilibrated in 25 mM sodium acetate at pH 5.5 (equilibration buffer). The column was washed until the absorbance reached the baseline value, and then the protein was eluted with a linear gradient from 0-2 M sodium chloride in the equilibration buffer. Column fractions were analyzed by SDS-PAGE, N-terminal sequencing, and mass spectrometry. Fractions containing the proform of cathepsin K were pooled and frozen at −80° C. The proform was concentrated in an Amicon Centriprep 10 and fractionated with a Superdex 75 column (26 mm×600 mm, Pharmacia) equilibrated in 400 mM sodium chloride, 25 mM sodium acetate at pH 5.5.
Cathepsin K Activation: The proform of cathepsin K was converted to mature cathepsin K by brief exposure to pH 4 in the presence of 5 mM L-cysteine. Typically, 5 mM L-cysteine was added to 10 mL of approximately 1 mg/mL procathepsin K. One mL of this solution was diluted ten-fold into 450 mM sodium acetate at pH 4.0 containing 5 mM L-cysteine. This solution was reacted at 23° C. for 2 min before neutralization with 2 mL 1.8 M sodium acetate at pH 6.0. The neutralized sample was added to the remaining 9 mL of procathepsin K. The mixture was incubated at 4° C. for 2-3 days. The activated cathepsin K was chromatographed on a Poros HS II column as described above.
Potential inhibitors were evaluated using the progress curve method. Assays were carried out in the presence of variable concentrations of test compound. Reactions were initiated by addition of buffered solutions of inhibitor and substrate to enzyme. Data analysis was conducted according to one of two procedures depending on the appearance of the progress curves in the presence of inhibitors. […] Ki values were calculated from IC50 values using equation 2 assuming a competitive model.

SMILES: CCCC[C@H](NC(=O)OCC1(CCCc2ccccc2)CCC1)C(=O)C(=O)N[C@H](C)c1ccccc1 [Example 7, [1-(3-Phenylpropyl)cyclobutyl]methyl(1S)-1-(oxo{[(1R)-1-phenylethyl]amino}acetyl)pentylcarbamate]
Ki (human cathepsin K): 0.01 to 0.1 µM
melting point: 91 to 93 °C

SMILES: CCCC[C@H](NC(=O)OCC1(Cc2ccccc2)CCC1)C(=O)C(=O)N[C@H](C)c1ccccc1 [Example 5, (1-Benzylcyclobutyl)methyl(1S)-1-(oxo{[(1R)-1-phenylethyl]amino}acetyl)pentylcarbamate]
Ki (human cathepsin K): 0.001 to 0.01 µM
melting point: 96 to 98 °C

SMILES: CCCC[C@H](NC(=O)OCC1(Cc2ccccc2)CCCC1)C(=O)C(=O)N[C@H](C)c1ccccc1 [Example 8, (1-Benzylcyclopentyl)methyl(1S)-1-(oxo{[(1R)-1-phenylethyl]amino}acetyl)pentylcarbamate]
Ki (human cathepsin K): 0.01 to 0.1 µM
melting point: 108 to 110 °C

SMILES: CCCC[C@H](NC(=O)OC1(Cc2ccccc2)CCCC1)C(=O)C(=O)N[C@H](C)c1ccccc1 [Example 2]
Ki (human cathepsin K): 0.01 to 0.1 µM

SMILES: CCCC[C@H](NC(=O)OC1(Cc2ccccc2)CCC1)C(=O)C(=O)N[C@H](C)c1ccccc1 [Example 1, 1-Benzylcyclobutyl (1S)-1-(oxo{[(1R)-1-phenylethyl]amino}acetyl)pentylcarbamate]
Ki (human cathepsin K): 0.1 to 1 µM

SMILES: CCCC[C@H](NC(=O)OCC1(CCc2ccccc2)CCC1)C(=O)C(=O)N[C@H](C)c1ccccc1 [Example 6, [1-(2-Phenylethyl)cyclobutyl]methyl(1S)-1-(oxo{[(1R)-1-phenylethyl]amino}acetyl)pentylcarbamate]
Ki (human cathepsin K): 0.01 to 0.1 µM
melting point: 86 to 88 °C

SMILES: C[C@@H](NC(=O)C(=O)[C@H](CCCCNC(=O)N1CCOCC1)NC(=O)OCC1(Cc2ccccc2)CCCCC1)c1ccccc1 [Example 9, (1-Benzylcyclohexyl)methyl(1S)-5-[(4-morpholinylcarbonyl)amino]-1-(oxo{[(1R)-1-phenylethy]amino}acetyl)pentylcarbamate]
Ki (human cathepsin K): 0.01 to 0.1 µM

Second part, the compound after the results:

Ki (human cathepsin K): 0.001 to 0.01 µM
SMILES: C[C@@H](NC(=O)C(=O)[C@H](CCCCNC(=O)N1CCOCC1)NC(=O)OCC1(Cc2ccncc2)CCC1)c1ccccc1 [Example 11, [1-(4-Pyridinylmethyl)cyclobutyl]methyl(1S)-5-[(4-morpholinylcarbonyl)amino]-1-(oxo{[(1R)-1-phenylethyl]amino}acetyl)pentylcarbamate]

Ki (human cathepsin K): 0.001 to 0.01 µM
SMILES: CCCC[C@H](NC(=O)OCC1(CSc2nccc(-c3ccc(Cl)cc3)n2)CCC1)C(=O)C(=O)N[C@H](C)c1ccccc1 [Example 33, [1-({[4-(4-chloro phenyl)-2-pyrimidinyl]sulfanyl}methyl)cyclobutyl]methyl (1S)-1-(oxo{[(1R)-1-phenylethyl]amino}acetyl)pentylcarbamate]

Ki (human cathepsin K): 0.01 to 0.1 µM
SMILES: CN(C)S(=O)(=O)NCCCC[C@H](NC(=O)OCC1(Cc2ccc(F)cc2)CCC1)C(=O)C(=O)NCc1cccnc1 [Example 16, [1-(4-Fluorobenzyl)cyclobutyl]methyl(1S)-5-{[(dimethylamino)sulfonyl]amino}-1-{oxo[(3-pyridinylmethyl)amino]acetyl}pentylcarbamate]

Ki (human cathepsin K): 0.01 to 0.1 µM
SMILES: CNC(=O)NCCCC[C@H](NC(=O)OCC1(Cc2c(F)cccc2F)CCC1)C(=O)C(=O)N[C@H](C)c1ccccc1 [Example 13, [1-(2,6-Difluorobenzyl)cyclobutyl]methyl(1S)-5-{[(methylamino)carbonyl]amino}-1-(oxo{[(1R)-1-phenylethyl]amino}acetyl)pentylcarbamate]

Ki (human cathepsin K): 0.01 to 0.1 µM
SMILES: CCCC[C@H](NC(=O)OCC1(CSc2ncccn2)CCC1)C(=O)C(=O)N[C@H](C)c1ccccc1 [Example 23, {1-[(2-pyrimidinylsulfanyl)methyl]cyclobutyl}methyl (1S)-1-(oxo{[(1R)-1-phenylethyl]amino}acetyl)pentylcarbamate]
